Experimental data taken from PubChem BioAssay AID330 (DTP/NCI, 2004).
Where “and” joins values, the source holds several entries; their conditions need not be identical. Identical values can stand only once. Inconclusive results and toxic doses are left out. Rule for the calls: active = survival T/C of 150% or more; inactive = T/C below 125% in these data.

Tested on: P388 leukemia ip, CD2F1 mice, survival T/C
Experiment: NCI In Vivo Anticancer Drug Screen. Data for tumor model P388 Leukemia (intraperitoneal) in CD2F1 (CDF1) mice
Settings: endpoint: median survival time, higher = longer survival
Procedure, shortened: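 Mice carrying the transplanted tumor received test compound or vehicle. Survival was recorded in each group, and the value is the treated-group measurement divided by that of the vehicle-treated control group.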

[1] = dose: 50.0 mg/kg/injection, schedule: Q01DX005 (ip), vehicle: Klucel (hydroxypropylcellulose) (HPC)
[2] = dose: 100.0 mg/kg/injection, schedule: Q01DX005 (ip), vehicle: Klucel (hydroxypropylcellulose) (HPC)
[3] = dose: 200.0 mg/kg/injection, schedule: Q01DX005 (ip), vehicle: Klucel (hydroxypropylcellulose) (HPC)
[4] = dose: 60.0 mg/kg/injection, schedule: Q01DX005 (ip), vehicle: saline with Tween-80
[5] = dose: 120.0 mg/kg/injection, schedule: Q01DX005 (ip), vehicle: saline with Tween-80
[6] = dose: 50.0 mg/kg/injection, schedule: Q01DX009 (ip), vehicle: saline with Tween-80
[7] = dose: 100.0 mg/kg/injection, schedule: Q01DX009 (ip), vehicle: saline with Tween-80
[8] = dose: 50.0 mg/kg/injection, schedule: Q01DX009 (ip), vehicle: saline
[9] = dose: 12.5 mg/kg/injection, schedule: Q01DX005 (ip), vehicle: saline with Tween-80
[10] = dose: 25.0 mg/kg/injection, schedule: Q01DX005 (ip), vehicle: saline with Tween-80
[11] = dose: 50.0 mg/kg/injection, schedule: Q01DX005 (ip), vehicle: saline with Tween-80
[12] = dose: 400.0 mg/kg/injection, schedule: Q01DX009 (ip), vehicle: saline with Tween-80
[13] = dose: 200.0 mg/kg/injection, schedule: Q01DX009 (ip), vehicle: saline with Tween-80

Measured: T/C

CCCn1c(=O)n(CC)c(=O)c2[nH]c(Cl)nc21
inactive: dose: 16.0 mg/kg/injection, schedule: Q01DX009 (ip), vehicle: Klucel (hydroxypropylcellulose) (HPC) 100 % of control and 105 % of control | dose: 32.0 mg/kg/injection, schedule: Q01DX009 (ip), vehicle: Klucel (hydroxypropylcellulose) (HPC) 102 % of control and 105 % of control | dose: 64.0 mg/kg/injection, schedule: Q01DX009 (ip), vehicle: Klucel (hydroxypropylcellulose) (HPC) 108 % of control and 112 % of control

COC(=O)c1cc(C=C(C)C)[nH]c(=O)c1C#N
inactive: dose: 30.0 mg/kg/injection, schedule: Q01DX005 (ip), vehicle: saline 99 % of control | dose: 60.0 mg/kg/injection, schedule: Q01DX005 (ip), vehicle: saline 100 % of control and 107 % of control | dose: 120.0 mg/kg/injection, schedule: Q01DX005 (ip), vehicle: saline 107 % of control

O=C(NS(=O)C1C=CC2CCCC21)OC1CCCCC1c1ccccc1 (configuration not stated)
inactive: [1] 109 % of control | [2] 100 % of control | [3] 97 % of control

C=C1C(=O)OC2C1C(OC(=O)/C(C)=C/C)CC1(C)OC1C1OC1C1(CO1)C2O (configuration not stated)
inactive: dose: 5.0 mg/kg/injection, schedule: Q01DX005 (ip), vehicle: Klucel (hydroxypropylcellulose) (HPC) 106 % of control | dose: 10.0 mg/kg/injection, schedule: Q01DX005 (ip), vehicle: Klucel (hydroxypropylcellulose) (HPC) 97 % of control | dose: 20.0 mg/kg/injection, schedule: Q01DX005 (ip), vehicle: Klucel (hydroxypropylcellulose) (HPC) 95 % of control | dose: 40.0 mg/kg/injection, schedule: Q01DX005 (ip), vehicle: Klucel (hydroxypropylcellulose) (HPC) 104 % of control | dose: 80.0 mg/kg/injection, schedule: Q01DX005 (ip), vehicle: Klucel (hydroxypropylcellulose) (HPC) 116 % of control

O=S(=O)(O)Nc1ccccc1
inactive: dose: 12.5 mg/kg/injection, schedule: Q01DX009 (ip), vehicle: water 100 % of control | dose: 25.0 mg/kg/injection, schedule: Q01DX009 (ip), vehicle: water 104 % of control | dose: 50.0 mg/kg/injection, schedule: Q01DX009 (ip), vehicle: water 99 % of control | dose: 100.0 mg/kg/injection, schedule: Q01DX009 (ip), vehicle: water 100 % of control | dose: 200.0 mg/kg/injection, schedule: Q01DX009 (ip), vehicle: water 101 % of control

NNC1=Nc2cc3c(cc2C(=O)N2C[C@H](O)CC12)OCO3 (some centres not stated)
inactive: dose: 100.0 mg/kg/injection, schedule: Q01DX001 (ip), vehicle: saline with Tween-80 100 % of control | dose: 200.0 mg/kg/injection, schedule: Q01DX001 (ip), vehicle: saline with Tween-80 100 % of control | dose: 400.0 mg/kg/injection, schedule: Q01DX001 (ip), vehicle: saline with Tween-80 99 % of control

O=C(Nc1ccc(F)cc1F)Oc1ccc2cc(Br)ccc2c1
inactive: dose: 50.0 mg/kg/injection, schedule: Q01DX009 (ip), vehicle: saline + alcohol 97 % of control | dose: 100.0 mg/kg/injection, schedule: Q01DX009 (ip), vehicle: saline + alcohol 91 % of control | dose: 200.0 mg/kg/injection, schedule: Q01DX009 (ip), vehicle: saline + alcohol 100 % of control

N#CC(NCc1ccccc1)c1ccccc1 (configuration not stated)
inactive: [4] 99 % of control | [5] 100 % of control

Brc1ccc(C[N+]23CN4CN(CN(C4)C2)C3)cc1
inactive: [6] 100 % of control | [7] 120 % of control | dose: 100.0 mg/kg/injection, schedule: Q04DX003 (ip), vehicle: saline 110 % of control | dose: 200.0 mg/kg/injection, schedule: Q04DX003 (ip), vehicle: saline 110 % of control

Cc1c[nH]c(=O)cn1
inactive: dose: 100.0 mg/kg/injection, schedule: Q04DX003 (ip), vehicle: Klucel (hydroxypropylcellulose) (HPC) 95 % of control | dose: 200.0 mg/kg/injection, schedule: Q04DX003 (ip), vehicle: Klucel (hydroxypropylcellulose) (HPC) 90 % of control | dose: 400.0 mg/kg/injection, schedule: Q04DX003 (ip), vehicle: Klucel (hydroxypropylcellulose) (HPC) 95 % of control

O=C1CC(=O)N2C=CC=CC2=N1
inactive: [8] 101 % of control | dose: 200.0 mg/kg/injection, schedule: Q01DX009 (ip), vehicle: saline 91 % of control

c1cc2nc(c1)CSCc1cc3c(cc1CSCc1cccc(n1)CSC3)CSC2
inactive: dose: 50.0 mg/kg/injection, schedule: Q01DX009 (ip), vehicle: suspension in saline 102 % of control | dose: 100.0 mg/kg/injection, schedule: Q01DX009 (ip), vehicle: suspension in saline 94 % of control | dose: 200.0 mg/kg/injection, schedule: Q01DX009 (ip), vehicle: suspension in saline 86 % of control

CC(=O)C(F)(F)C(F)(F)C(F)(F)C(F)(F)C(C)=O
inactive: [4] 99 % of control | [5] 94 % of control | dose: 240.0 mg/kg/injection, schedule: Q01DX005 (ip), vehicle: saline with Tween-80 103 % of control

COc1ccc2c(c1)CC1c3c(cc4c(c3-2)OCO4)CCN1C (configuration not stated)
inactive: dose: 30.0 mg/kg/injection, schedule: Q01DX005 (ip), vehicle: Klucel (hydroxypropylcellulose) (HPC) 93 % of control | dose: 60.0 mg/kg/injection, schedule: Q01DX005 (ip), vehicle: Klucel (hydroxypropylcellulose) (HPC) 90 % of control | dose: 120.0 mg/kg/injection, schedule: Q01DX005 (ip), vehicle: Klucel (hydroxypropylcellulose) (HPC) 90 % of control

c1cn[nH]c1
inactive: dose: 25.0 mg/kg/injection, schedule: Q01DX009 (ip), vehicle: saline 93 % of control | [8] 101 % of control | dose: 100.0 mg/kg/injection, schedule: Q01DX009 (ip), vehicle: saline 111 % of control

COc1cccc(/C=C2/SC(=S)N(Cc3ccco3)C2=O)c1OC
inactive: [9] 100 % of control | [10] 90 % of control | [11] 90 % of control and 91 % of control

O=C(OCC1OC(n2ccc(=S)[nH]c2=O)C(OC(=O)c2ccccc2)C1OC(=O)c1ccccc1)c1ccccc1 (configuration not stated)
inactive: [9] 102 % of control | [10] 91 % of control | [11] 91 % of control and 95 % of control | dose: 200.0 mg/kg/injection, schedule: Q01DX005 (ip), vehicle: saline with Tween-80 87 % of control

CNC(=O)CCC(NS(=O)(=O)c1ccc(NC(C)=O)cc1)C(=O)O (configuration not stated)
inactive: dose: 100.0 mg/kg/injection, schedule: Q01DX001 (ip), vehicle: Klucel (hydroxypropylcellulose) (HPC) 105 % of control | dose: 200.0 mg/kg/injection, schedule: Q01DX001 (ip), vehicle: Klucel (hydroxypropylcellulose) (HPC) 98 % of control | dose: 400.0 mg/kg/injection, schedule: Q01DX001 (ip), vehicle: Klucel (hydroxypropylcellulose) (HPC) 100 % of control

NCCN.NCCN.[Cl-].[O]=[Os+2]=[O]
inactive: [4] 118 % of control | [5] 114 % of control

CCCCOC1OCN(C2CCCCC2)CC1(C)C (configuration not stated)
inactive: [6] 104 % of control and 121 % of control | [12] 120 % of control

O=C(O)C(Cc1cn(Cc2ccccc2)cn1)NCc1ccccc1 (configuration not stated)
inactive: [1] 92 % of control | [2] 104 % of control | [3] 95 % of control

C=CCOP1(c2ccccc2)(c2ccccc2)NC(c2ccccc2)(c2ccccc2)C(C(=O)OC)=C1C(=O)OC
inactive: [1] 90 % of control | [2] 91 % of control | [3] 92 % of control

COc1ncc[n+]([O-])n1
inactive: [6] 103 % of control | [7] 100 % of control and 108 % of control and 111 % of control | [13] 100 % of control and 102 % of control and 123 % of control | [12] 93 % of control

c1ccc2c(Nc3ccc4c(c3)OCO4)c3c(nc2c1)CCCC3
inactive: dose: 12.5 mg/kg/injection, schedule: Q01DX005 (ip), vehicle: Klucel (hydroxypropylcellulose) (HPC) 102 % of control | dose: 25.0 mg/kg/injection, schedule: Q01DX005 (ip), vehicle: Klucel (hydroxypropylcellulose) (HPC) 101 % of control | [1] 100 % of control and 112 % of control

O=C1OC(=O)C2C3C=CC(C4C=CC43)C12 (configuration not stated)
inactive: dose: 25.0 mg/kg/injection, schedule: Q01DX009 (ip), vehicle: Klucel (hydroxypropylcellulose) (HPC) 106 % of control | dose: 50.0 mg/kg/injection, schedule: Q01DX009 (ip), vehicle: Klucel (hydroxypropylcellulose) (HPC) 115 % of control | dose: 100.0 mg/kg/injection, schedule: Q01DX009 (ip), vehicle: Klucel (hydroxypropylcellulose) (HPC) 115 % of control | dose: 200.0 mg/kg/injection, schedule: Q01DX009 (ip), vehicle: Klucel (hydroxypropylcellulose) (HPC) 97 % of control

CCCCCCCCCCCCOc1ccccc1
inactive: [6] 100 % of control | [7] 104 % of control | [13] 100 % of control
